Experimental data from US20070004715A1, “Novel spiro-quinuclidinyl derivatives for the treatment of central nervous system disorders” (priority 2005, published 2007).
Where a name gives a salt, the structure may show the parent alone. Read-outs that look alike come from different tables or passages of the source.

Experiments:
[1] = target: T1, fluo-Aβ1-40 (Homo sapiens, UniProt P05067); assay: Aβ Aggregation Assay (Synthaloid plates, fluo-Aβ1-40); type: biochemical; conditions: 10 μM test compound, 100 nM fluo-Aβ1-40, 2.5 hr at room temperature; higher % = greater effectiveness at preventing aggregation
T1 construct: added 100 nM of fluo-Aβ1-40 in 100 μl
Method: Aβs are known to form aggregates leading to the formation of amyloid plaques that are characteristic of Alzheimer's disease.
This aggregation assay was validated using both ^125I-Aβ1-40 and fluo-Aβ1-40 in a buffer containing 50 mM HEPES, pH 7.4, 0.1% BSA, 10% FCS and protease inhibitors.
To each well of a 96-well Synthaloid plate was added 100 nM of fluo-Aβ1-40 in 100 μl. To each well was then added 10 μM of test compound. The plate was then allowed to incubate for 2.5 hr at room temperature. At the end of the incubation, unbound protein in the wells was removed by three washes using the buffer as described above. The amount of bound protein (which represents the amount of Aβ aggregation) was measured either by fluorescence measurements.
Higher fluorescence values relative to vehicle wells were interpreted as an indication of greater Aβ aggregation. […] Higher % values in the data in Table 4 below, below indicates greater effectiveness at preventing aggregation.
(§1) Both the Aβ aggregation assay as described in Example 55, particularly as run using the ^125I-Aβ1-40, and the % inhibition of AcH release assay as described in Example 56, were highly variable on a run-to-run basis. However, the relative activities of the tested compounds were reproducible.

[2] = target: T2, M1 muscarinic receptor (M1 human CHO receptor membranes) (Homo sapiens, UniProt P11229); assay: M1 Muscarinic Receptor % Inhibition Assay (SPA, tritiated scopolamine); type: binding
T2 construct: purchased Amersham 6110503; host or cells: CHO cell membranes
T2 sequence (P11229 1-460): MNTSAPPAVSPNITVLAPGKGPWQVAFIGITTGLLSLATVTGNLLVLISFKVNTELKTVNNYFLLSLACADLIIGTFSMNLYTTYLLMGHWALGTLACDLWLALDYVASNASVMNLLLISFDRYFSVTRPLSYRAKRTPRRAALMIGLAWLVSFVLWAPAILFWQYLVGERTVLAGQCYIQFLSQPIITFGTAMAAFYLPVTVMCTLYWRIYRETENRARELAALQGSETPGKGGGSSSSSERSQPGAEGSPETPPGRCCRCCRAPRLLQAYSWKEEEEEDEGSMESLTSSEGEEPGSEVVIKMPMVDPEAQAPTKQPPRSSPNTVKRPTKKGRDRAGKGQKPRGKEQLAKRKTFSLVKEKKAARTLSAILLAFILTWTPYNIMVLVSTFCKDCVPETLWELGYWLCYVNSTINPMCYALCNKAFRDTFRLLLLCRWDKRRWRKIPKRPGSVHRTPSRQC

[3] = system: Synaptosomes from guinea pig hippocampus; assay: % Inhibition of AcH Release Assay (K+-evoked 3H-acetylcholine release); type: cell-based; conditions: synaptosomes pre-treated with 10 μM test compound prior to 65 mM K+ stimulation
Method: Synaptosomes from guinea pig hippocampus were incubated with 0.1 μM ^3H-choline and then subjected to repeated washes with buffer to remove unincorporated ^3H-choline. The synaptosomes were then treated with 65 mM K^+ for 30 seconds to elicit 3H-acetylcholine release.
To determine if a test compound will inhibit acetylcholine release, the synaptosomes were pre-treated with 10 μM of the test compound prior to the K+ stimulation. The decrease or increase in acetylcholine release was then measured by superfusion.
as §1

[4] = system: Synaptosomes from guinea pig hippocampus; conditions: peptide at 100 μM; 'known to' inhibit release; cited from earlier work

T1 sequence (P05067 672-711): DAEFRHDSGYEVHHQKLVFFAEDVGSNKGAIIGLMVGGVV

Cc1ccc(N2C(=N)CC3(CN4CCC3CC4)OC2=O)cc1Cl (stereo not drawn) [Compound 109, 3′-(3-chloro-4-methylphenyl)-quinuclidine-3-spiro-4′-iminooxan-2-ones trifluoroacetate salt]
Aβ aggregation inhibition (%) [1]: 80% | % Inhibition @1 μM ([2]; 1 μM compound): 90% | % Inhibition @10 μM ([2]; 10 μM compound): 98% | Inhibition of acetylcholine release [3]: 33%

Aβ1-40: β-amyloid peptide 1-40, known to inhibit acetylcholine release from synaptosomes
Inhibition of acetylcholine release [4]: 33%

Aβ1-42: β-amyloid1-42 peptide, forms oligomers, fibrils and amyloid plaques
Inhibition of acetylcholine release [4]: 33%

N=C1CC2(CN3CCC2CC3)OC(=O)N1c1cc(Cl)cc(Cl)c1 (stereo not drawn) [Compound 107, 3′-(3,5-dichlorophenyl)-quinuclidine-3-spiro-4′-iminooxan-2-ones trifluoroacetate salt]
Aβ aggregation inhibition (%) [1]: 30% | Inhibition of acetylcholine release [3]: 54%

O=C1OC2(CN3CCC2CC3)C(=O)N1c1cc(Cl)ccc1Cl (stereo not drawn) [Compound 12, 3′-(2,5-dichlorophenyl)-quinuclidine-3-spiro-5′-oxazolidine-2′,4′-dione trifluoroacetate salt]
Aβ aggregation inhibition (%) [1]: 85% | Inhibition of acetylcholine release [3]: 17%

O=C1OC2(CN3CCC2CC3)C(=O)N1c1cccc(C(F)(F)F)c1 (stereo not drawn) [Compound 1, 3′-(3-trifluoromethylphenyl)-quinuclidine-3-spiro-5′-oxazolidine-2′,4′-dione trifluoroacetate salt]
Aβ aggregation inhibition (%) [1]: 100% | Inhibition of acetylcholine release [3]: 36%
